In paper PMC9718554, “Discovery of a fragment hit compound targeting D-Ala:D-Ala ligase of bacterial peptidoglycan biosynthesis” (Journal of Enzyme Inhibition and Medicinal Chemistry, 2022):
Read-outs that look alike come from different tables or passages of the source.

Molecular target: T1, E. coli DdlB enzyme (D-alanine:D-alanine ligase) (Escherichia coli, UniProt P07862)
T1 construct: made in house; host or cells: E. coli
Experiment: biochemical
Settings: for remaining activity at 1800 µM: tested concentration 1.8 mM; for remaining activity at 2100 µM: tested concentration 2.1 mM; for remaining activity at 2000 µM: tested concentration 2.0 mM; for remaining activity at 1700 µM: tested concentration 1.7 mM; for remaining activity at 2200 µM: tested concentration 2.2 mM; for remaining activity at 2400 µM: tested concentration 2.4 mM; for remaining activity at 2800 µM: tested concentration 2.8 mM; for remaining activity at 2600 µM: tested concentration 2.6 mM; for remaining activity at 1900 µM: tested concentration 1.9 mM; for remaining activity at 2300 µM: tested concentration 2.3 mM
Procedure: The fragment library was assayed in a DdlB inhibition assay, where fragments were tested for their ability to inhibit the D-Ala-adding activity of DdlB ligase. The orthophosphate formed during the enzymatic reaction was measured spectrophotometrically using malachite green reagent.
A recombinant E. coli DdlB enzyme (D-alanine:D-alanine ligase) was expressed in E. coli[11]. […] The final DMSO concentration was 5%. […] All experiments were performed in duplicates. […] IC50 values were determined by measuring the residual activities in quadruplicate at seven different compound concentrations and calculated using in GraphPad Prism (GraphPad Software, San Diego, CA, USA).

[1] = residual activity, read-out: DdlB RA
[2] = residual activity of DdlB, fragment library screening, tested concentration 2.5 mM, read-out: DdlB RA
[3] = fragment library screening, read-out: DdlB RA

Compound: Cc1cc2nc(COC(=O)c3ccco3)cc(=O)n2o1 [Compound G265-0750]
- remaining activity at 1800 µM (read-out: DdlB RA): 92%

Compound: Cc1ccc2nc(C)c(CN3CCCCC3C)c(O)c2c1 (stereo not shown) [Compound 4300-0248]
- remaining activity at 1800 µM [1]: 87%

Compound: Cc1nc2ccccc2c(O)c1S(=O)(=O)O [Compound L150-1119]
- remaining activity at 2100 µM (read-out: DdlB RA): 90%

Compound: Cc1ccc2nc3c(C(=O)O)cccn3c(=O)c2c1 [Compound C200-9601]
- remaining activity at 2000 µM [1]: 75%

Compound: O=c1c(O)c(Nc2ccc(CN3CCCCC3)cc2)c1=O [Compound G317-0765]
- remaining activity at 1700 µM (read-out: DdlB RA): 92%

Compound: CCN1CCOC(=O)C1CC(=O)Nc1ccc(F)cc1 (stereo not shown) [Compound 8563-1154]
- remaining activity at 2000 µM [1]: 88%

Compound: O=C(Nc1nc[nH]n1)c1ccc(Cl)cc1 [Compound 8003-7117]
- remaining activity at 2200 µM [1]: 103%

Compound: CCCN(C)C(=O)Cc1c[nH]c2ncccc12 [Compound M508-0627]
- remaining activity at 2200 µM [1]: 86%

Compound: Cc1nc(-c2ccc(C(=O)O)cc2)cs1 [FLD018]
- remaining activity at 2500 µM [2]: 99%

Compound: CC(Oc1ccccc1)C(=O)O (stereo not shown) [FLD019]
- remaining activity at 2500 µM [2]: 99%

Compound: O=C(O)c1ccnc(N2CCOCC2)c1 [Compound Y043-8163]
- remaining activity at 2400 µM (read-out: DdlB RA): 89%

Compound: Oc1nc(-c2ccc(F)cc2)no1 [Compound C066-5406]
- remaining activity at 2800 µM (read-out: DdlB RA): 97%

Compound: Cc1cc(=O)n(-c2ccccc2)n1C [FLD081]
- remaining activity at 2500 µM [2]: 100%

Compound: COc1cc(C(=O)NO)cc(OC)c1OC [Compound 8017-0604]
- remaining activity at 2200 µM [1]: 96%

Compound: COCCn1nc(-c2cocn2)c2c1CCN(C(C)C)C2 [SD01-0107]
- remaining activity at 1700 µM [1]: 92%

Compound: Cc1cc(C)n(CO)n1 [FLD195]
- remaining activity at 2500 µM [2]: 97%

Compound: CC(=O)N1CC(c2nc(C)no2)C2(CNC2)C1 (stereo not shown) [SB57-1191]
- remaining activity at 2200 µM (read-out: DdlB RA): 69%

Compound: CCOC(=O)c1ccccc1S(N)(=O)=O [Compound 0147-0017]
- remaining activity at 2200 µM (read-out: DdlB RA): 99%

Compound: Cc1ccc2cc(CCC(=O)O)c(O)nc2c1 [Compound P207-8939]
- remaining activity at 2600 µM (read-out: DdlB RA): 93%

Compound: CC1(CNC(=O)c2ccccc2Cl)CCOCC1 [Compound P970-0504]
- remaining activity at 2200 µM [1]: 94%

Compound: Oc1ccccc1 [FLD105]
- remaining activity at 2500 µM (read-out: DdlB RA): 95%

Compound: O=C(O)c1cnn2c(-c3ccsc3)ccnc12 [Compound 16, 7-(Thiophen-3-yl)pyrazolo[1,5-a]pyrimidine-3-carboxylic acid]
- remaining activity at 500 µM (at 0.5 mM, read-out: DdlB inhibition, RA (Residual Activity)): 89%

Compound: O=C(O)C1CCN(c2cnc(N3CCCC3)nc2)CC1 [FF01-3116]
- remaining activity at 2200 µM [1]: 69%

Compound: O=C(O)c1c[nH]cn1 [FLD011]
- remaining activity at 2500 µM [2]: 100%

Compound: CC1(C)CC(n2nc(O)cc2N)CCO1 (stereo not shown) [Compound 8013-3639]
- remaining activity at 2400 µM (read-out: DdlB RA): 101%

Compound: Nc1ccc(-c2ccc(N)cc2)cc1 [FLD069]
- remaining activity at 2500 µM [2]: 70%

Compound: O=C1C=C(O)CO1 [Compound 8020-5738]
- remaining activity at 5000 µM (tested concentration 5.0 mM, read-out: DdlB RA): 98%

Compound: O=C(O)C1CSC(c2c(F)cc(F)cc2F)N1 (stereo not shown) [Compound 8011-4426]
- remaining activity at 1900 µM (read-out: DdlB RA): 90%

Compound: CC(C)n1c(S(=O)(=O)O)nc2ccccc21 [Compound 4587-0081]
- remaining activity at 2100 µM (read-out: DdlB RA): 83%

Compound: O=C1Cn2nnc(CNC(=O)NC3CCCC3)c2CN1 [SC45-0107]
- remaining activity at 2200 µM [1]: 93%

Compound: O=C(O)CCC(=O)N1CCO[C@H](c2ccccc2)C1 [Compound Y044-6579]
- remaining activity at 1900 µM [3]: 93%

Compound: CC(=O)N1CCC(=O)CC1 [FLD190]
- remaining activity at 2500 µM [2]: 100%

Compound: Nc1ccc(Cl)nn1 [FLD052]
- remaining activity at 2500 µM [2]: 96%

Compound: Cc1ccc(C(=O)O)c(NC(=O)c2ccncc2)c1 [Compound 8006-9224]
- remaining activity at 2000 µM [1]: 97%

Compound: CC(CCc1ccccc1)NC(=O)N1CCOCC1 (stereo not shown) [Compound Y030-6075]
- remaining activity at 2100 µM [1]: 94%

Compound: Cc1ncc(CO)c(CO)c1O [FLD194]
- remaining activity at 2500 µM [2]: 99%

Compound: COc1cc(C#N)cc2[nH]c(=O)oc12 [Compound 8020-7090]
- remaining activity at 2600 µM (read-out: DdlB RA): 97%

Compound: CC1CN(S(=O)(=O)c2ccc(F)cc2)CC(C)O1 (stereo not shown) [Compound Y030-1235]
- remaining activity at 2000 µM [1]: 93%

Compound: O=c1c(N2CCCC2)c(N2CCCC2)c1=O [Compound K906-4052]
- remaining activity at 2300 µM (read-out: DdlB RA): 98%

Compound: O=S(=O)(c1ccccc1)N1CCN2CCCC2C1 (stereo not shown) [Compound Y206-5298]
- remaining activity at 2300 µM [1]: 92%

Compound: NCCc1ccc(Br)cc1 [FLD170]
- remaining activity at 2500 µM [2]: 93%

Compound: O=C(O)C(c1ccccc1)c1ccccc1 [FLD066]
- remaining activity at 2500 µM [2]: 100%

Compound: COc1cc(N)c(C#N)cc1OC [FLD048]
- remaining activity at 2500 µM [2]: 100%

Compound: O=C(O)c1ccccc1C(=O)NCc1ccccc1 [Compound K786-0839]
- remaining activity at 2000 µM [3]: 98%

Compound: Cc1cccc(-c2ccnc3c(C(=O)O)cnn23)c1 [Compound Y502-0116]
- remaining activity at 2000 µM [3]: 6%

Compound: O=C(O)CCc1nnc2ccccn2c1=O [Compound Y042-3065]
- remaining activity at 2300 µM (read-out: DdlB RA): 102%

Compound: O=C(O)c1[nH]c2ccc(F)cc2c1Br [Compound 8020-2406]
- remaining activity at 1900 µM [1]: 89%

Compound: O=C(O)Cn1ccc(=O)[nH]c1=O [Compound D702-0091]
- remaining activity at 2900 µM (tested concentration 2.9 mM, read-out: DdlB RA): 89%

Compound: CCS(=O)(=O)N1CCC(C(=O)N2CCCCC2)CC1 [Compound Y050-2528]
- remaining activity at 2100 µM [1]: 97%

Compound: O=C(C1CCCN(C(=O)C2CCC2)C1)N1CCOCC1 (stereo not shown) [Compound P773-6398]
- remaining activity at 2000 µM [1]: 98%

Compound: CC(C)n1nnc2cc(C(N)=O)ccc21 [Compound Z606-2126]
- remaining activity at 2400 µM (read-out: DdlB RA): 92%

Compound: O=C(O)C1CCN(c2nc3cc(Cl)ccc3o2)CC1 [Compound 8019-8559]
- remaining activity at 1800 µM [3]: 93%

Compound: CNc1ccccc1N [FLD179]
- remaining activity at 2500 µM [2]: 84%

Compound: O=c1[nH]c(O)ncc1S(=O)(=O)N1CCCC1 [Compound D668-0107]
- remaining activity at 2000 µM [1]: 94%

Compound: CCS(=O)(=O)Nc1cccc(F)c1 [Compound Y207-1326]
- remaining activity at 3000 µM (tested concentration 3.0 mM, read-out: DdlB RA): 92%

Compound: Cn1ccnc1S(=O)(=O)O [Compound 8019-8648]
- remaining activity at 3100 µM (tested concentration 3.1 mM, read-out: DdlB RA): 92%

Compound: Clc1cc(Cl)ncn1 [FLD117]
- remaining activity at 2500 µM [2]: 97%

Compound: O=C1CNCCN1 [FLD058]
- remaining activity at 2500 µM [2]: 100%

Compound: O=C(O)CCCc1nc2ccccc2c(=O)n1C1CC1 [Compound Y042-5065]
- remaining activity at 1800 µM [3]: 92%

Compound: CCn1c(C(=O)NC(C)C)cc2occc21 [Compound Z601-0941]
- remaining activity at 2300 µM (read-out: DdlB RA): 96%

Compound: Cc1cc2nc(COC(=O)C(C)(C)C)cc(=O)n2o1 [Compound G265-0759]
- remaining activity at 1900 µM (read-out: DdlB RA): 97%

Compound: NC(=O)N[C@@H](Cc1ccccc1)C(=O)O [Compound 8011-7026]
- remaining activity at 2400 µM (read-out: DdlB RA): 93%

Compound: O=C(Nc1cccc(F)c1)[C@H]1CCCC[C@H]1C(=O)O [Compound Y203-6612]
- remaining activity at 1900 µM [3]: 93%

Compound: COc1cc(OC)c2cc(C(=O)O)[nH]c2c1 [Compound 8017-9359]
- remaining activity at 2300 µM [1]: 104%

Compound: CC1=NC(C)(C)CO1 [FLD188]
- remaining activity at 2500 µM [2]: 91%

Compound: NS(=O)(=O)c1ccc(CNC(=O)c2ccncc2)cc1 [Compound Y205-1594]
- remaining activity at 1700 µM (read-out: DdlB RA): 102%

Compound: N#CCS(=O)(=O)C1CCCCC1 [FF20-0194]
- remaining activity at 3200 µM (residual activity of DdlB, fragment library screening, tested concentration 3.2 mM, read-out: DdlB RA): 101%

Compound: O=C1CNC(=S)N1 [FLD022]
- remaining activity at 2500 µM [2]: 98%

Compound: COc1cccc(C(=O)Nc2ccccc2C(=O)O)c1 [Compound Y030-1668]
- remaining activity at 1800 µM [1]: 97%

Compound: C/C=C/c1ccc(OC)cc1 [FLD073]
- remaining activity at 2500 µM [2]: 100%

Compound: Cc1[nH]c(N)c(C#N)c1C [Compound 8018-8696]
- remaining activity at 4400 µM (residual activity of DdlB, fragment library screening, tested concentration 4.4 mM, read-out: DdlB RA): 98%

Compound: Nn1cnnc1 [FLD138]
- remaining activity at 2500 µM [2]: 96%

Compound: O=C(O)Cn1nnc(O)n1 [Compound 8013-5932]
- remaining activity at 3500 µM (tested concentration 3.5 mM, read-out: DdlB RA): 86%

Compound: O=C(O)c1cc(S(=O)(=O)N2CCCC2)ccc1O [Compound 8019-7119]
- remaining activity at 1800 µM [1]: 97%

Compound: N#Cc1cnn2c1NC(C1CC1)CC2C(F)(F)F (stereo not shown) [Compound Y501-9194]
- remaining activity at 2300 µM (read-out: DdlB RA): 83%

Compound: O=C(O)Cc1cccs1 [FLD146]
- remaining activity at 2500 µM [2]: 95%

Compound: NCCc1cccc(F)c1 [FLD175]
- remaining activity at 2500 µM [2]: 94%

Compound: CN1CCN(C(=O)Nc2ccccc2C(=O)O)CC1 [Compound Y043-2499]
- remaining activity at 1900 µM [1]: 92%

Compound: Oc1nonc1NCc1ccccc1 [Compound 8018-6481]
- remaining activity at 2600 µM (read-out: DdlB RA): 102%

Compound: O=C1CC(c2ccccc2)c2snc(C(=O)O)c2N1 (stereo not shown) [Compound 8020-2209]
- remaining activity at 1800 µM [1]: 94%

Compound: CC(=O)N1CCCC(c2nn(C)c(=O)n2C2CCCC2)C1 (stereo not shown) [Compound P940-4223]
- remaining activity at 2100 µM [1]: 96%

Compound: COCC(C)NC(=O)c1cc(C)no1 (stereo not shown) [Compound C625-0074]
- remaining activity at 2800 µM (read-out: DdlB RA): 96%

Compound: O=S(=O)(O)c1nnc(-c2ccncc2)[nH]1 [Compound 8020-6014]
- remaining activity at 2200 µM (read-out: DdlB RA): 80%

Compound: CCc1nc2ccc(C(N)=O)cc2nc1CC [Compound Z601-0869]
- remaining activity at 2400 µM (read-out: DdlB RA): 88%

Compound: Cc1ccc(C(=O)CC2(O)C(=O)Nc3ccccc32)c(C)c1 (stereo not shown) [Compound 8010-6588]
- remaining activity at 1700 µM (read-out: DdlB RA): 93%
